# Measurements taken from PMC11154582, “Modeling the Blood-Brain Barrier Permeability of Potential Heterocyclic Drugs via Biomimetic IAM Chromatography Technique Combined with QSAR Methodology” (Molecules, 2024).
# Where two headings read alike, the source gives them in different places.
# What was measured:
# [1] = set-up: method as in ref [8,16] (a number printed in a supplementary file, which may have a reference list of its own: not looked up in the article's list); details: supplement ref [8,16]; cited from earlier work
# [2] = IAM column, cited from earlier work
# [3] = system: central nervous system of mice; set-up: method as in PMID 24157086; details: preliminary tests, ref [21]; cited from earlier work
# human cancer cells [4] = system: human cancer cells; set-up: method as in ref [3-7,9-15,17-21] (a number printed in a supplementary file, which may have a reference list of its own: not looked up in the article's list); details: supplement ref [3-7,9-15,17-21]; cited from earlier work
# [5] = system: oxidatively-stressed erythrocytes; details: supplement ref [4,19,26,30]; cited from earlier work
# [6] = set-up: method as in ref [14] (a number printed in a supplementary file, which may have a reference list of its own: not looked up in the article's list); details: supplement ref [14]; cited from earlier work
# human cancer cells [7] = system: human cancer cells; set-up: method as in ref [3,9,10,13,18-21] (a number printed in a supplementary file, which may have a reference list of its own: not looked up in the article's list); details: supplement ref [3,9,10,13,18-21]; cited from earlier work
# [8] = set-up: method as in ref [21,22] (a number printed in a supplementary file, which may have a reference list of its own: not looked up in the article's list); details: supplement ref [21,22]; cited from earlier work
# [9] = system: zebrafish embryos and larvae; set-up: method as in ref [18,20] (a number printed in a supplementary file, which may have a reference list of its own: not looked up in the article's list); details: versus anticancer agent pemetrexed; supplement ref [18,20]; cited from earlier work
# [10] = Biomimetic IAM chromatography (log kw, IAM); format: physicochemical; details: IAM.PC.DD2 column, buffered acetonitrile, pH 7.4, 25 °C, extrapolated to buffer
# Procedure: High performance liquid chromatography (HPLC) measurements were performed on a Shimadzu Vp liquid chromatographic system (Shimadzu, Izabelin, Poland). This instrument was equipped with LC 10AT pump, SPD 10A ultraviolet-visible detector, SCL 10A system controller, CTO-10 AS chromatographic oven, and a Rheodyne injector valve with a 20 μL loop. As the stationary phase Regis IAM.PC.DD2 column, 100 × 4.6 mm i.d., 10 μm (Morton Grove, IL, USA) was applied.
# Buffered acetonitrile mixtures were used as effluents. Acetonitrile concentration, expressed as a volume fraction, was varied within a range from 0.2 to 0.5, with a constant step of 0.1. The buffer was prepared from 0.01 mol L^−1 solutions of Na2HPO4 and citric acid, and a pH value of 7.4 was fixed before mixing with an organic modifier. The flow rate was 1.3 mL min^−1. Each compound sample was dissolved in acetonitrile to obtain a concentration of 0.005 mg mL^−1, and each solute peak was detected under ultraviolet light at a wavelength of λmax = 254 nm. Each measurement was performed at a constant temperature (25 °C) at least three times. The dead time values were measured from sodium chloride peaks.
# From among 126 heterocyclic compounds evaluated in this work (Table 1), 89 structures have been investigated previously on the IAM column: these are molecules from groups III, IV, V, VI, VII, VIII, IX, XI, XIII, and XV [21, 22, 23]. The remaining ones, i.e., 37 compounds from groups I, II, X, XII and XIV, were tested in this study for the first time using the biomimetic IAM chromatographic technique. To calculate the log kw values (i.e., the logarithms of retention parameter in the buffer as the mobile phase), the retention parameters, logs k (k = (tr − t0)/t0; where tr is the solute retention time, and t0 is a dead time), that were measured for all tested compounds, were used according to Soczewiński-Wachtmeister’s equation (Equation (5)): (5) log k=logtr−t0/t0=log kw−sφ where φ denotes the volume fraction of acetonitrile as organic modifier in the mobile phase, and kw means the retention parameter corresponding to buffer as the mobile phase. The log kw values were evaluated as linear regression coefficients (Table 2).
smiles,measurement,setting,value
Cc1ccc(N2CCn3c2nnc(Cc2ccccc2Cl)c3=O)cc1 [Compound 109],analgesic activity,[1],analgesic
same,"log kw, IAM",[2]; ref [23],2.65
same,analgesic activity,[3],analgesic activity
same,toxicity,[3],low toxicity
same,antitumor activity,human cancer cells [4],antitumor
COC(=O)Cc1nnc2n(c1=O)CCN2c1ccc(C)cc1 [Compound 41],analgesic activity,[1],analgesic
same,"log kw, IAM",[2]; ref [23],1.33
O=c1c(-c2ccccc2)nnc2n1CCN2c1ccc(Cl)c(Cl)c1 [Compound 92],antihemolytic activity,[5],antihemolytic
same,analgesic activity,[1],analgesic
same,"log kw, IAM",[2]; ref [23],3.26
COc1ccc(N2CCn3c2nnc(-c2ccccc2)c3=O)cc1 [Compound 86],"log kw, IAM",[2]; ref [23],1.71
same,antimetastatic activity,[6],antimetastatic
same,antitumor activity,human cancer cells [4],antitumor
NNC(=O)c1nnc2n(c1=O)CCN2c1ccccc1 [Compound 51],analgesic activity,[1],analgesic
same,"log kw, IAM",[2]; ref [21],−0.14
CC(C)c1nnc2n(c1=O)CCN2c1ccc(Cl)c(Cl)c1 [Compound 34],mechanism of antiproliferative action: promoting apoptotic caspases,human cancer cells [7],promoting apoptotic caspases
same,"log kw, IAM",[2]; ref [22],1.67
CCOC(=O)c1nnc2n(c1=O)CCN2c1cccc(Cl)c1 [Compound 37],"log kw, IAM",[2]; ref [22],1.73
same,antitumor activity,human cancer cells [4],antitumor
CC(C)c1nnc2n(c1=O)CCN2c1ccc(Cl)cc1 [Compound 33],mechanism of antiproliferative action: promoting apoptotic caspases,human cancer cells [7],promoting apoptotic caspases
same,"log kw, IAM",[2]; ref [22],1.39
NNC(=O)c1nnc2n(c1=O)CCN2c1ccc(Cl)c(Cl)c1 [Compound 55],antiradical activity,[8],antiradical
same,"log kw, IAM",[2]; ref [21],0.69
COC(=O)Cc1nnc2n(c1=O)CCN2c1ccc(OC)cc1 [Compound 42],analgesic activity,[1],analgesic
same,"log kw, IAM",[2]; ref [23],0.81
CCOC(=O)Cc1nnc2n(c1=O)CCN2c1cccc(Cl)c1 [Compound 48],mechanism of antiproliferative action: promoting apoptosis,human cancer cells [7],apoptosis
same,mechanism of antiproliferative action: promoting necrosis,human cancer cells [7],necrosis
same,"log kw, IAM",[2]; ref [23],2.05
O=c1c(C(F)(F)F)nnc2n1CCN2c1ccccc1 [Compound 15],"log kw, IAM",[2]; ref [22],0.94
same,toxicity for zebrafish embryos and larvae compared with pemetrexed,[9],lower
CCOc1ccc(N2CCn3c2nnc(Cc2ccccc2Cl)c3=O)cc1 [Compound 114],analgesic activity,[1],analgesic
same,"log kw, IAM",[2]; ref [23],2.51
same,analgesic activity,[3],analgesic activity
same,toxicity,[3],low toxicity
same,antitumor activity,human cancer cells [4],antitumor
CC(C)c1nnc2n(c1=O)CCN2c1ccccc1Cl [Compound 31],mechanism of antiproliferative action: promoting apoptotic caspases,human cancer cells [7],promoting apoptotic caspases
same,"log kw, IAM",[2]; ref [22],0.65
CCOC(=O)Cc1nnc2n(c1=O)CCN2c1ccccc1 [Compound 45],mechanism of antiproliferative action: promoting apoptosis,human cancer cells [7],apoptosis
same,mechanism of antiproliferative action: promoting necrosis,human cancer cells [7],necrosis
same,"log kw, IAM",[2]; ref [23],1.21
Cc1ccccc1N1CCn2c1nnc(C(F)(F)F)c2=O [Compound 16],mechanism of antiproliferative action: promoting apoptotic caspases,human cancer cells [7],promoting apoptotic caspases
same,"log kw, IAM",[2]; ref [22],0.76
same,toxicity for zebrafish embryos and larvae compared with pemetrexed,[9],lower
Cc1cc(Cl)ccc1OCc1nnc2n1CCN2c1ccccc1 [Compound 8],mechanism of antiproliferative action: inducing DNA damage,human cancer cells [7],DNA damage
same,"log kw, IAM",[10],0.09
O=c1c(-c2ccc([N+](=O)[O-])cc2)nnc2n1CCN2c1ccccc1Cl [Compound 98],"log kw, IAM",[10],2.16
CCOc1ccc(N2CCn3c2nnc(Cc2ccccc2)c3=O)cc1 [Compound 112],analgesic activity,[1],analgesic
same,"log kw, IAM",[2]; ref [23],2.11
Cc1cccc(N2CCn3c2nnc(-c2cccs2)c3=O)c1C [Compound 75],"log kw, IAM",[10],1.17
NNC(=O)c1nnc2n(c1=O)CCN2c1cccc(Cl)c1 [Compound 54],mechanism of antiproliferative action: inducing DNA damage,human cancer cells [7],DNA damage
same,mechanism of antiproliferative action: promoting apoptosis,human cancer cells [7],apoptosis
same,"log kw, IAM",[2]; ref [21],0.41
same,antitumor activity,human cancer cells [4],antitumor
COc1ccc(N2CCn3c2nnc(CC(=O)NN)c3=O)cc1 [Compound 58],antiradical activity,[8],antiradical
same,"log kw, IAM",[10],−0.27
COc1ccccc1N1CCn2c1nnc(C(F)(F)F)c2=O [Compound 18],mechanism of antiproliferative action: promoting apoptotic caspases,human cancer cells [7],promoting apoptotic caspases
same,"log kw, IAM",[2]; ref [22],0.67
O=c1c(-c2ccccc2)nnc2n1CCN2c1ccccc1Cl [Compound 89],antihemolytic activity,[5],antihemolytic
same,analgesic activity,[1],analgesic
same,"log kw, IAM",[2]; ref [23],1.73
same,analgesic activity,[3],analgesic activity
same,toxicity,[3],low toxicity
c1ccc(N2CCn3cnnc32)cc1 [Compound 1],"log kw, IAM",[10],0.10
Cc1ccc(N2CCn3c2nnc(-c2ccc([N+](=O)[O-])cc2)c3=O)cc1 [Compound 95],"log kw, IAM",[10],1.83
O=c1c(-c2ccc([N+](=O)[O-])cc2)nnc2n1CCN2c1ccccc1 [Compound 93],"log kw, IAM",[10],1.92
COc1ccc(N2CCn3cnnc32)cc1 [Compound 3],"log kw, IAM",[10],0.10
CCOC(=O)c1nnc2n(c1=O)CCN2c1ccc(Cl)c(Cl)c1 [Compound 39],"log kw, IAM",[2]; ref [22],3.36
same,antitumor activity,human cancer cells [4],antitumor
Cc1cccc(N2CCn3c2nnc(-c2ccccc2)c3=O)c1 [Compound 83],antihemolytic activity,[5],antihemolytic
same,analgesic activity,[1],analgesic
same,"log kw, IAM",[2]; ref [23],2.26
same,analgesic activity,[3],analgesic activity
same,toxicity,[3],low toxicity
same,antimetastatic activity,[6],antimetastatic
O=c1c(-c2cccs2)nnc2n1CCN2c1ccc(Cl)c(Cl)c1 [Compound 80],mechanism of antiproliferative action: promoting apoptosis,human cancer cells [7],apoptosis
same,mechanism of antiproliferative action: promoting necrosis,human cancer cells [7],necrosis
same,"log kw, IAM",[10],2.68
O=c1c(-c2ccc([N+](=O)[O-])cc2)nnc2n1CCN2c1ccc(Cl)cc1 [Compound 100],"log kw, IAM",[10],2.52
CCOc1ccc(N2CCn3c2nnc(Cc2ccc(Cl)cc2)c3=O)cc1 [Compound 116],"log kw, IAM",[2]; ref [23],2.72
same,analgesic activity,[3],analgesic activity
same,toxicity,[3],low toxicity
same,antitumor activity,human cancer cells [4],antitumor
O=c1c(-c2ccccc2)nnc2n1CCN2c1ccc(Cl)cc1 [Compound 91],analgesic activity,[1],analgesic
same,"log kw, IAM",[2]; ref [23],2.57
O=c1c(Cc2ccccc2Cl)nnc2n1CCN2c1ccccc1 [Compound 103],analgesic activity,[1],analgesic
same,"log kw, IAM",[2]; ref [23],2.34
same,analgesic activity,[3],analgesic activity
same,toxicity,[3],low toxicity
CCOc1ccc(N2CCn3c2nnc(CC(=O)NN)c3=O)cc1 [Compound 59],"log kw, IAM",[10],0.06
O=c1c(C(F)(F)F)nnc2n1CCN2c1ccccc1Cl [Compound 19],mechanism of antiproliferative action: promoting apoptotic caspases,human cancer cells [7],promoting apoptotic caspases
same,"log kw, IAM",[2]; ref [22],0.88
O=c1c(-c2cccs2)nnc2n1CCN2c1ccccc1Cl [Compound 77],"log kw, IAM",[10],1.75
CCOC(=O)Cc1nnc2n(c1=O)CCN2c1ccc(Cl)c(Cl)c1 [Compound 50],mechanism of antiproliferative action: promoting apoptosis,human cancer cells [7],apoptosis
same,mechanism of antiproliferative action: promoting necrosis,human cancer cells [7],necrosis
same,"log kw, IAM",[2]; ref [23],2.42
O=c1c(-c2cccs2)nnc2n1CCN2c1cccc(Cl)c1 [Compound 78],"log kw, IAM",[10],2.26
O=c1c(-c2ccc([N+](=O)[O-])cc2)nnc2n1CCN2c1ccc(Cl)c(Cl)c1 [Compound 101],"log kw, IAM",[10],3.22
Cc1ccc(N2CCn3c2nnc(CC(=O)NN)c3=O)cc1 [Compound 57],"log kw, IAM",[10],0.13
